Measurements as given in patent US20090233841A1, “ANALGESIC CONJUGATES” (Regents of the University of Minnesota, priority 2005, published 2009).
Entries after “also recorded” stand apart in the source; their conditions may differ.

Experiments:
male ICR mice [1] = experiment: Mouse radiant heat tail flick assay after acute ICV administration; assay type: in vivo; conditions: for ED50 nmol (95% C.L.), antinociceptive potency: conjugates and coadministration; for effect of naltrindole pretreatment on ED50 / acute analgesic activity: pretreatment with the delta antagonist naltrindole
Protocol: Acute drug administration. Drugs were dissolved in sterile saline (0.9% NaCl). Animals were anesthetized with halothane and drugs were administered with a Hamilton syringe mated to a shortened (3 mm) 27-g needle in a volume of 4 μl by ICV injection into the lateral cerebral ventricle (Haley et al., 1957). The injection site was 1.6 mm lateral and 0.6 mm caudal to bregma.
Antinociceptive testing. […] Mice were tested once before injection (control time).

male ICR mice [2] = experiment: Tolerance: tail flick ED50 after 3-day chronic ICV infusion (osmotic minipump); assay type: in vivo, mouse; conditions: for tolerance on chronic ICV administration: 3-day ICV infusion; for Chronic ED50 nmol (95% C.L.): compound chronically administered ICV for 3 days, then challenge doses; for Saline ED50 nmol (95% C.L.): saline chronically administered ICV for 3 days, then challenge doses of compound; for fold increase in ED50 value after chronic ICV infusion: three-day ICV infusion
Protocol: (§1) Chronic administration To investigate tolerance and dependence associated with these conjugates, chronic ICV administration studies were performed. The compound of interest was administered ICV via a cannula using an osmotic minipump for 3 days, as previously described (Gomori et al., 2003; Mashiko et al., 2003). Withdrawal was measured by administering naloxone (1 mg/kg; subcutaneous (sc)) and counting the naloxone-precipitated jumps for 10 minutes. Tolerance was determined by administering challenge doses of the compound after chronic infusion for 3 days, and determining the chronic ED50 value at that time.
(§2) Chronic ICV infusion. Osmotic minipumps (model 1003D, Alzet, Durect Corporation, Cupertino, Calif.) were filled with saline or the drug to be tested. The dose of each drug was twelve times its ED50 (nmol)/hour. The minipumps were connected by a 1.6-1.8 cm length of PE-60 tubing to a 3-mm long cannula (osmotic pump connector cannula, Plastics One, Roanoke, Va.) and primed in sterile saline at 37° C. overnight.
(§3) The next day, mice were anesthetized with Avertin (2,2,2-tribromoethanol (370 mg/kg, IP)/tert amyl alcohol (0.16 mg/kg, IP)) before surgery. The scalp was shaved and an incision was made along the midline of the scalp. Hemostats were used to make a pocket under the skin between the shoulder blades. The skull was scraped clean of periosteum so that the cannula pedestal would properly adhere to the skull. A micro drill (Fine Science Tools Inc., Foster City, Calif.) was used to drill a hole approximately 1.6 mm lateral and 0.6 mm caudal to bregma. The minipump was placed between the shoulder blades, the cannula was inserted in the drilled hole into the lateral ventricle, and the cannula pedestal was affixed to the skull with cyanoacrylate glue. The animals were allowed to recover on a heating pad (Fine Science Tools, Foster City, Calif.) and were returned to their cages in the animal facility for three days.
To test the degree of tolerance developed, the osmotic minipump was removed and the mice were returned to their cages for four hours. The mice were then injected with the test drug into the contralateral lateral cerebral ventricle and antinociception was measured with the tail flick test as described above.

male ICR mice [3] = experiment: Physical dependence: naloxone-precipitated withdrawal jumping after chronic ICV infusion; assay type: in vivo, mouse; conditions: for physical dependence on chronic ICV administration: 3-day ICV infusion, naloxone-precipitated jumping; for # of Jumps (SEM), naloxone-precipitated withdrawal: average jumps in 10 minutes after naloxone 1 mg/kg sc, after 3-day ICV infusion
Protocol: as §1, §2, §3
Testing for dependence and tolerance. The development of physical dependence was assessed by quantifying withdrawal jumping observed during precipitated withdrawal (Way et al., 1969) on the fourth day after surgery. Mice were injected with naloxone (1 mg/kg, sc) and placed into Plexiglas cylinders for 10 minutes. During those 10 minutes, vertical jumps were counted as withdrawal signs.

mice = experiment: Conditioned place preference (CPP); assay type: in vivo, mouse; conditions: IV, 4× the ED90 analgesic dose
Protocol: Conditioned place preference (CPP) is a technique used to measure the rewarding properties of a drug. Two sides of the CPP apparatus have both visual and tactile differences, so that a mouse can tell the difference between sides. On the first day of testing, the time each mouse spends in either side of the apparatus is measured. For the next three days, the drug is “paired” with one side or the other by injecting the mouse and immediately confining it to that side. On the final day, the amount of time the mouse spends in the drug-paired side is determined and the percent change is calculated. If the percent change is positive, the drug is thought to be rewarding and likely to be abused by humans.
Methods The CPP apparatus used was a plastic box, approximately 12 inches×6 inches×6 inches (1/w/h). One half of the box was transparent with a scored or textured floor and the other half of the box had blue vertical stripes with a smooth floor. The box was divided such that the mice could go from one side to the other through an opening or be confined to one side.
Preconditioning On day 1, each mouse was allowed to explore both sides of the box for 15 minutes to expose them to the novel environment. On day 2, each mouse was placed into the box for 15 minutes and the amount of time the mouse spent in each side of the box was recorded. Mice that spend more than 9 minutes in one side of the box are excluded (two of 32 mice were excluded).
Conditioning On day 3, each mouse was given two sets of IV injections. First, the mice were injected with saline and randomly confined to one side of the box for 30 minutes. The mice were then injected with the drug (or saline, for control mice) and confined to the other side of the box (“drug-paired side”) for 30 minutes. This conditioning paradigm was repeated for three days.
Postconditioning On day 6, the amount of time the mouse spent in each side of the box was recorded. For the results, the amount of time the mouse spent in the drug-paired side during preconditioning was subtracted from the time spent in the drug-paired side during post-conditioning to reach a “score”: Score=Postconditioning time in drug-paired side-Preconditioning time spent in drug-paired side.
FIG. 1 depicts the percent change in time spent in the drug-paired side. The asterisks in the graph indicate significant difference from saline (p<0.05).

male ICR mice [4] = experiment: Mouse tail flick assay after IV administration; conditions: tail flick, IV
Protocol: Antinociceptive testing. Antinociception was evaluated by the radiant heat tail flick assay (D'Amour et al., 1941). Briefly, a beam of light was focused on the mouse tail and the time until the tail flicked was measured. Each animal served as its own control and was used only once. Mice were tested once before injection (control time). After injection, the mice were tested at the time of peak drug response (drug time), as determined by pilot time course studies. The light intensity was adjusted so that control times were between 1.5 and 2.5 s. A 10 second cutoff drug time was set to minimize the risk of tissue damage. Percent maximum possible effect (% MPE) was calculated as follows (Dewey et al., 1970): […]
Graded dose response curves of at least 4 doses with at least 8 mice per dose were generated from the % MPE data.
Methods Drugs were administered IV via the tail vein in a volume of 100 μl to male ICR mice. Fifteen minutes later, antinociception was measured by the tail flick assay and charcoal meal (300 μl, oral) was administered by gavage. Thirty minutes after the charcoal meal., the mice were sacrificed by halothane overdose and the distance the charcoal traveled relative to the entire length of the GI tract was compared to the distance traveled in control animals injected with saline. The conjugates tested (MDAN-16, MDAN-19, MDAN-20, and MDAN-21) had linker lengths of 19, 23, 24, and 25 Å.

[5] = mouse tail flick, acute ICV administration

| SMILES | ED50 nmol (95% C.L.), antinociceptive potency (male ICR mice [1]; [5]) | effect of naltrindole pretreatment on ED50 / acute analgesic activity (male ICR mice [1]) | tolerance on chronic ICV administration (male ICR mice [2]; listed as MDAN-16) | Chronic ED50 nmol (95% C.L.) (male ICR mice [2]) | Saline ED50 nmol (95% C.L.) (male ICR mice [2]) | fold increase in ED50 value after chronic ICV infusion (male ICR mice [2]) [fold] | physical dependence on chronic ICV administration (male ICR mice [3]; listed as MDAN-16) | # of Jumps (SEM), naloxone-precipitated withdrawal (male ICR mice [3]) | # of Jumps (SEM), naloxone-precipitated withdrawal (male ICR mice [3]; listed as MDAN-16) | conditioned place preference (mice) | tolerance on chronic ICV administration (male ICR mice [2]; listed as MDAN-19) | physical dependence on chronic ICV administration (male ICR mice [3]; listed as MDAN-19) | Ligand ED50 pmol (95% C.L.), antinociceptive potency (male ICR mice [1]; mouse tail flick, acute ICV administration, mu control ligands) [pmol] | ED50 ICV (nmol) (male ICR mice [1]; tail flick, ICV, Table 2) | ED50 IV (nmol) (male ICR mice [4]) | tolerance on chronic ICV administration (male ICR mice [2]) | physical dependence on chronic ICV administration (male ICR mice [3]) | # of Jumps (SEM), naloxone-precipitated withdrawal (male ICR mice [3]; listed as MA-19) |
| --- | --- | --- | --- | --- | --- | --- | --- | --- | --- | --- | --- | --- | --- | --- | --- | --- | --- | --- |
| CN1CCC23c4c5ccc(O)c4OC2C(NC(=O)COCC(=O)NCCNC(=O)COCC(=O)Nc2cccc4c6c([nH]c24)C2Oc4c(O)ccc7c4C24CCN(CC2CC2)C(C7)C4(O)C6)CCC3(O)C1C5 (stereo not shown) [Compound 3] | 1.79 (1.54-2.04) nmol | This effect was not observed | produced both tolerance and dependence; also recorded: both tolerance and physical dependence developed | 4.72 (3.47-5.91) nmol | 1.62 (1.35-1.89) nmol | 2.6 | produced both tolerance and dependence; also recorded: both tolerance and physical dependence developed | 30 (23) | 30 | suggested a place preference | – | – | – | – | – | – | – | – |
| CN1CCC23c4c5ccc(O)c4OC2C(NC(=O)COCC(=O)NCCCCCNC(=O)COCC(=O)Nc2cccc4c6c([nH]c24)C2Oc4c(O)ccc7c4C24CCN(CC2CC2)C(C7)C4(O)C6)CCC3(O)C1C5 (stereo not shown) [Compound 6] | 0.43 (0.36-0.50) nmol | acute analgesic activity was similar to the control ligand MA-19 | – | 0.40 (0.33-0.47) nmol | 0.42 (0.37-0.47) nmol | – | – | 3.6 (1.7) | – | did not display a place preference | no tolerance or dependence was observed; also recorded: produced no tolerance or physical dependence | no tolerance or dependence was observed; also recorded: produced no tolerance or physical dependence | – | – | – | – | – | – |
| CNC(=O)COCC(=O)NCCCCCNC(=O)COCC(=O)NC1CCC2(O)C3Cc4ccc(O)c5c4C2(CCN3C)C1O5 (stereo not shown) [Compound 12, reference compound] | – | – | – | 0.22 (0.19-0.26) nmol | 0.04 (0.03-0.05) nmol | 5.5 | – | 83 (13) | – | – | – | – | 39.45 | 0.04 (0.03-0.05) nmol | 1.61 (1.29-1.92) nmol | produced both antinociceptive tolerance and physical dependence | produced both antinociceptive tolerance and physical dependence | 83 |
